Patent publication US20240247080A1, “GLP1/GIP/NPY2 RECEPTOR TRIPLE AGONISTS” (Boehringer Ingelheim International GmbH, priority 2022, published 2024)
Like-named read-outs stand apart in the source and are kept apart here. Starred links: 1 amine or outer side, 2 acyl side, 3 side chain; linkers in the order of their positions; H or OH if unused. Non-standard residues stand in square brackets, D forms with d. Groups on a side chain read outwards from the residue. No end group written: not given here. *: point of attachment. C20 diacid = O=C(O)CCCCCCCCCCCCCCCCCCC(=O)*; C18 diacid = O=C(O)CCCCCCCCCCCCCCCCC(=O)*; γGlu = O=C(O)[C@H](CCC(=O)[*:2])N[*:1]; εLys = N[C@@H](CCCCN[*:1])C(=O)[*:2]; β3hQ = NC(=O)CC[C@H](N)CC(=O)O; AEEA = NCCOCCOCC(=O)O; Aib = CC(C)(N)C(=O)O

Legend:
Format in all cases: cell-based
Settings in all cases: CreLuc reporter gene assay
hGIPR = biological target: T1, hGIPR (Homo sapiens, UniProt P48546); assay: hGIPR CreLuc reporter gene assay in 0.5% and 100% plasma
T1 construct: expressed in transfected cells; host or cells: CHO cells carrying a CRE-luciferase reporter gene
T1 sequence (P48546 22-466): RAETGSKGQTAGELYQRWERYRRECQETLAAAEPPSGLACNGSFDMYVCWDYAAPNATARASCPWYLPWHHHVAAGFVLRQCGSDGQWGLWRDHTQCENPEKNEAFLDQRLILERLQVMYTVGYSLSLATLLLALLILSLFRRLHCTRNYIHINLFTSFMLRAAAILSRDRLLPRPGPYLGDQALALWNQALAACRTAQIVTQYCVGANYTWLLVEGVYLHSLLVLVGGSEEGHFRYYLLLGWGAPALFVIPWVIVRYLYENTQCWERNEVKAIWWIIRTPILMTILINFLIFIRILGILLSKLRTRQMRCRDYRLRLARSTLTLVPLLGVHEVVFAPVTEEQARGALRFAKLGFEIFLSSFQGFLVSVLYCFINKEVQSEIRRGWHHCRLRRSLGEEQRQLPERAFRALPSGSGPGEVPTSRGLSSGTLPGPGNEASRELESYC
Summary of the method: (§1)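 HEK cells (GLP-1R, NPY2R) or CHO cells (GIPR) carrying a CRE-luciferase reporter, incubated 4 h at 37 °C with peptides in HBSS/20 mM HEPES pH 7.4 plus 0.5% human plasma, or in 100% plasma. Luminescence read; EC50 from 8-point variable-slope sigmoid fits.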

hGLP1R = biological target: T2, hGLP1R (Homo sapiens, UniProt P43220); assay: hGLP1R CreLuc reporter gene assay in 0.5% and 100% plasma
T2 construct: expressed in transfected cells; host or cells: HEK-293 cells carrying a CRE-luciferase reporter gene
T2 sequence (P43220 24-463): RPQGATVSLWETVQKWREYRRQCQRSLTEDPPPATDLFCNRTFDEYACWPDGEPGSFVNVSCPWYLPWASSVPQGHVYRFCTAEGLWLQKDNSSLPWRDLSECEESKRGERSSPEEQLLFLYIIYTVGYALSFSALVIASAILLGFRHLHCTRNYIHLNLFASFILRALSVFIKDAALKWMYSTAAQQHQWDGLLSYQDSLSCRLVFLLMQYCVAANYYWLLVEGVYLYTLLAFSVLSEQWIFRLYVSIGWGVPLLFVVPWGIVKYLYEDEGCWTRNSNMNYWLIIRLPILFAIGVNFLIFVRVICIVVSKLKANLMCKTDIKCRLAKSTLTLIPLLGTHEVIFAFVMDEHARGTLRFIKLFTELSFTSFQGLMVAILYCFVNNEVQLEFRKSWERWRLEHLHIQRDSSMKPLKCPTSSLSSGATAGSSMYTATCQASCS
Summary of the method: as §1

hNPY2R = biological target: T3, hNPY2R (Homo sapiens, UniProt P49146); assay: hNPY2R CreLuc reporter gene assay in 0.5% and 100% plasma
T3 construct: expressed in transfected cells; host or cells: HEK-293 cells carrying a CRE-luciferase reporter gene
T3 sequence (P49146 1-381): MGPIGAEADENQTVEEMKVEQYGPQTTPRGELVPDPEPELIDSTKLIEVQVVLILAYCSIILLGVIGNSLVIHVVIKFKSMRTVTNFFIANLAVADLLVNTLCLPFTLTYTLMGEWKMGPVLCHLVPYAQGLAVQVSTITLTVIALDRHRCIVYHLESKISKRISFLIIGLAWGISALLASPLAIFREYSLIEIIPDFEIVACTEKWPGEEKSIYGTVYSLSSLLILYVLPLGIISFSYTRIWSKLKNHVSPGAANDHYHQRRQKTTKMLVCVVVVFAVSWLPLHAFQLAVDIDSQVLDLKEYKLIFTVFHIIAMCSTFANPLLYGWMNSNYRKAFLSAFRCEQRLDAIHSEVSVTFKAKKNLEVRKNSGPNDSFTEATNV
Summary of the method: as §1

[1] = 0.5% human plasma, read-out: hGIPR 0.5% hP
[2] = 0.5% human plasma, read-out: hGLP1R 0.5% hP
[3] = 0.5% human plasma, read-out: hNPY2R 0.5% hP
[4] = 100% human plasma, read-out: hNPY2R 100% hP
[5] = 100% human plasma, read-out: hGIPR 100% hP

EC50 (hGIPR; [1])	EC50 (hGLP1R; [2])	EC50 (hNPY2R; [3])	EC50 (hNPY2R; [4])	EC50 (hGIPR; [5])	EC50 (hGLP1R; 100% human plasma, read-out: hGLP1R 100% hP)	Compound
0.55 nM	0.12 nM	13.4 nM	36.8 nM			H-Y[Aib]EGTFTSDYSI[Aib]LEKQAQ[Aib]AFVQWLIK([AEEA-AEEA-γGlu-γGlu-γGlu-γGlu-γGlu-C20 diacid])GGPSEPASLRHYYNWLTRQRY-NH2 [Compound 111, Y-Aib-E-G-T-F-T-S-D-Y-S-I-Aib-L-E-K-Q-A-Q-Aib-A-F-V-Q-W-L-I-K(1,3)-GGPSEPASLRHYYNWLTRQRY-NH2.C20DA-gGlu-gGlu-gGlu-gGlu-gGlu-OEG-OEG(1,2)]
0.26 nM	0.1 nM	21.3 nM	55.2 nM	0.87 nM		H-Y[Aib]EGTFTSDYSI[Aib]LEKQAQ[Aib]AFVEWLIK([AEEA-AEEA-γGlu-γGlu-γGlu-γGlu-C18 diacid])GGPESGASLRHYYNWLTRQRY-NH2 [Compound 163, Y-Aib-E-G-T-F-T-S-D-Y-S-I-Aib-L-E-K-Q-A-Q-Aib-A-F-V-E-W-L-I-K(1,3)-GGPESGASLRHYYNWLTRQRY-NH2.C18DA-gGlu-gGlu-gGlu-gGlu-OEG-OEG(1,2)]
0.11 nM	0.11 nM	> 99.9 nM		0.77 nM		H-Y[Aib]EGTFTSDYSI[Aib]LEKQAQ[Aib]AFVQWLIK([εLys-γGlu-γGlu-γGlu-γGlu-γGlu-γGlu-C20 diacid])GGPSEGASLRHYYNWLTR[β3hQ]RY-NH2 [Compound 186, Y-Aib-E-G-T-F-T-S-D-Y-S-I-Aib-L-E-K-Q-A-Q-Aib-A-F-V-Q-W-L-I-K(1,3)-G-G-P-S-E-G-A-S-L-R-H-Y-Y-N-W-L-T-R-bHGln-R-Y-NH2.C20DA-gGlu-gGlu-gGlu-gGlu-gGlu-gGlu-eLys(1,2)]
0.27 nM	0.31 nM	16.7 nM				Y[Aib]EGTFTSDYSI[Aib]LEKQAE[Aib]AFVEWLIK([AEEA-AEEA-γGlu-γGlu-γGlu-γGlu-C18 diacid])GGPSSGASLRHYYNWLTRQRY-NH2 [Compound 150, Y-Aib-E-G-T-F-T-S-D-Y-S-I-Aib-L-E-K-Q-A-E-Aib-A-F-V-E-W-L-I-K(1,3)-GGPSSGASLRHYYNWLTRQRY-NH2.C18DA-gGlu-glu-Glu-Glu-OEG-OEG(1,2)]
0.13 nM	0.13 nM	20.6 nM		0.75 nM		H-Y[Aib]EGTFTSDYSI[Aib]LEKQAQ[Aib]AFVEWLIK([εLys-γGlu-γGlu-γGlu-γGlu-γGlu-γGlu-C20 diacid])GGPSSPASLRHYYNWLTRQRY-NH2 [Compound 95, Y-Aib-E-G-T-F-T-S-D-Y-S-I-Aib-L-E-K-Q-A-Q-Aib-A-F-V-E-W-L-I-K(1,3)-GGPSSPASLRHYYNWLTRQRY-NH2.C20DA-gGlu-gGlu-gGlu-gGlu-gGlu-gGlu-eLys(1,2)]
0.09 nM	0.28 nM	10.8 nM		0.64 nM		CC[C@H](C)[C@H](NC(=O)[C@H](CO)NC(=O)[C@H](Cc1ccc(O)cc1)NC(=O)[C@H](CC(=O)O)NC(=O)[C@H](CO)NC(=O)[C@@H](NC(=O)[C@H](Cc1ccccc1)NC(=O)[C@@H](NC(=O)CNC(=O)[C@H](CCC(=O)O)NC(=O)C(C)(C)NC(=O)[C@@H](N)Cc1ccc(O)cc1)[C@@H](C)O)[C@@H](C)O)C(=O)NC(C)(C)C(=O)N[C@@H](CC(C)C)C(=O)N[C@@H](CCC(=O)O)C(=O)N[C@@H](CCCCN)C(=O)N[C@@H](CCC(N)=O)C(=O)N[C@@H](C)C(=O)N[C@@H](CCC(N)=O)C(=O)NC(C)(C)C(=O)N[C@@H](C)C(=O)N[C@@H](Cc1ccccc1)C(=O)N[C@H](C(=O)N[C@@H](CCC(=O)O)C(=O)N[C@@H](Cc1c[nH]c2ccccc12)C(=O)N[C@@H](CC(C)C)C(=O)N[C@@H](CC(C)C)C(=O)N[C@@H](CCCCNC(=O)[C@@H](N)CCCCNC(=O)CC[C@H](NC(=O)CC[C@H](NC(=O)CC[C@H](NC(=O)CC[C@H](NC(=O)CC[C@H](NC(=O)CC[C@H](NC(=O)CCCCCCCCCCCCCCCCCCC(=O)O)C(=O)O)C(=O)O)C(=O)O)C(=O)O)C(=O)O)C(=O)O)C(=O)NCC(=O)NCC(=O)N1CCC[C@H]1C(=O)N[C@@H](CO)C(=O)N[C@@H](CO)C(=O)NCC(=O)N[C@@H](C)C(=O)N[C@@H](CO)C(=O)N[C@@H](CC(C)C)C(=O)N[C@@H](CCCNC(=N)N)C(=O)N[C@@H](Cc1c[nH]cn1)C(=O)N[C@@H](Cc1ccc(O)cc1)C(=O)N[C@@H](Cc1ccc(O)cc1)C(=O)N[C@@H](CC(N)=O)C(=O)N[C@@H](Cc1c[nH]c2ccccc12)C(=O)N[C@@H](CC(C)C)C(=O)N[C@H](C(=O)N[C@@H](CCCNC(=N)N)C(=O)N[C@@H](CCC(N)=O)C(=O)N[C@@H](CCCNC(=N)N)C(=O)N[C@@H](Cc1ccc(O)cc1)C(N)=O)[C@@H](C)O)C(C)C [Compound 109, Y-Aib-E-G-T-F-T-S-D-Y-S-I-Aib-L-E-K-Q-A-Q-Aib-A-F-V-E-W-L-L-K(1,3)-GGPSSGASLRHYYNWLTRQRY-NH2.C20DA-gGlu-gGlu-glu-gGlu-gGlu-Glu-eLys(1,2)]
0.64 nM	0.24 nM	18.7 nM			11.6 nM	H-Y[Aib]EGTFTSDYSI[Aib]LEEEAQ[Aib]AFVEWLIK([εLys-γGlu-γGlu-γGlu-γGlu-γGlu-γGlu-C20 diacid])GGPSSGASLRHYYNWLTRQRY-NH2 [Compound 66, Y-Aib-E-G-T-F-T-S-D-Y-S-I-Aib-L-E-E-E-A-Q-Aib-A-F-V-E-W-L-I-K(1,3)-GGPSSGASLRHYYNWLTRQRY-NH2.C20DA-gGlu-gGlu-gGlu-gGlu-gGlu-gGlu-eLys(1,2)]
0.09 nM	0.1 nM	10.1 nM	39.9 nM	0.83 nM		H-Y[Aib]EGTFTSDYSI[Aib]LEKQAQ[Aib]AFVEWLIK([εLys-γGlu-γGlu-γGlu-γGlu-γGlu-γGlu-C20 diacid])GGPSEGQSIRHYYNWLTRQRY-NH2 [Compound 134, Y-Aib-E-G-T-F-T-S-D-Y-S-I-Aib-L-E-K-Q-A-Q-Aib-A-F-V-E-W-L-I-K(1,3)-GGPSEGQSIRHYYNWLTRQRY-NH2.C20DA-gGlu-gGlu-gGlu-gGlu-gGlu-gGlu-eLys(1,2)]
0.17 nM	0.11 nM	10.3 nM				H-Y[Aib]EGTFTSDYSI[Aib]LEKQAQ[Aib]AFVQWLIK([γGlu-γGlu-γGlu-γGlu-γGlu-C20 diacid])GGPESPASLRHYYNWLTRQRY-NH2 [Compound 11, Y-Aib-E-G-T-F-T-S-D-Y-S-I-Aib-L-E-K-Q-A-Q-Aib-A-F-V-Q-W-L-I-K(1,3)-GGPESPASLRHYYNWLTRQRY-NH2.C20DA-gGlu-gGlu-gGlu-gGlu-gGlu(1,2)]
0.7 nM	0.14 nM	11.1 nM	56.3 nM	1.75 nM		H-Y[Aib]EGTFTSDYSI[Aib]LEKQAQ[Aib]AFVEWLIK([γGlu-γGlu-γGlu-γGlu-γGlu-C20 diacid])GGPSEGASLRHYYNWLTRQRY-NH2 [Compound 289, Y-Aib-E-G-T-F-T-S-D-Y-S-I-Aib-L-E-K-Q-A-Q-Aib-A-F-V-E-W-L-I-K(1,3)-GGPSEGASLRHYYNWLTRQRY-NH2.C20DA-gGlu-gGlu-gGlu-gGlu-gGlu(1,2)]
